Assay results: article PMC5686105, “The industrial anaerobe Clostridium acetobutylicum uses polyketides to regulate cellular differentiation” (Nature Communications, 2017)

What was measured:
[1] = molecular target: T1, PKS (ca_c3355) (Clostridium acetobutylicum, UniProt Q97DW5); assay: in vitro product assay by LC-MS; type: biochemical; conditions: 100 mM phosphate pH 7.0, 2 mM malonyl-CoA, 2 mM NADPH, 8 uM PKS, room temperature, 2 h; KR domain reductant
[2] = molecular target: T1, PKS (ca_c3355); assay: in vitro product assay by LC-MS; […] acyl loading by SDS-PAGE autoradiography; type: biochemical; conditions: 100 mM phosphate pH 7.0, 2 mM malonyl-CoA, 8 uM PKS, room temperature, 2 h; covalent acyl-S-enzyme intermediate seen with labelled compound (made in situ by MatB, pH 8.0, 25 °C)

T1 sequence (Q97DW5 1-1795): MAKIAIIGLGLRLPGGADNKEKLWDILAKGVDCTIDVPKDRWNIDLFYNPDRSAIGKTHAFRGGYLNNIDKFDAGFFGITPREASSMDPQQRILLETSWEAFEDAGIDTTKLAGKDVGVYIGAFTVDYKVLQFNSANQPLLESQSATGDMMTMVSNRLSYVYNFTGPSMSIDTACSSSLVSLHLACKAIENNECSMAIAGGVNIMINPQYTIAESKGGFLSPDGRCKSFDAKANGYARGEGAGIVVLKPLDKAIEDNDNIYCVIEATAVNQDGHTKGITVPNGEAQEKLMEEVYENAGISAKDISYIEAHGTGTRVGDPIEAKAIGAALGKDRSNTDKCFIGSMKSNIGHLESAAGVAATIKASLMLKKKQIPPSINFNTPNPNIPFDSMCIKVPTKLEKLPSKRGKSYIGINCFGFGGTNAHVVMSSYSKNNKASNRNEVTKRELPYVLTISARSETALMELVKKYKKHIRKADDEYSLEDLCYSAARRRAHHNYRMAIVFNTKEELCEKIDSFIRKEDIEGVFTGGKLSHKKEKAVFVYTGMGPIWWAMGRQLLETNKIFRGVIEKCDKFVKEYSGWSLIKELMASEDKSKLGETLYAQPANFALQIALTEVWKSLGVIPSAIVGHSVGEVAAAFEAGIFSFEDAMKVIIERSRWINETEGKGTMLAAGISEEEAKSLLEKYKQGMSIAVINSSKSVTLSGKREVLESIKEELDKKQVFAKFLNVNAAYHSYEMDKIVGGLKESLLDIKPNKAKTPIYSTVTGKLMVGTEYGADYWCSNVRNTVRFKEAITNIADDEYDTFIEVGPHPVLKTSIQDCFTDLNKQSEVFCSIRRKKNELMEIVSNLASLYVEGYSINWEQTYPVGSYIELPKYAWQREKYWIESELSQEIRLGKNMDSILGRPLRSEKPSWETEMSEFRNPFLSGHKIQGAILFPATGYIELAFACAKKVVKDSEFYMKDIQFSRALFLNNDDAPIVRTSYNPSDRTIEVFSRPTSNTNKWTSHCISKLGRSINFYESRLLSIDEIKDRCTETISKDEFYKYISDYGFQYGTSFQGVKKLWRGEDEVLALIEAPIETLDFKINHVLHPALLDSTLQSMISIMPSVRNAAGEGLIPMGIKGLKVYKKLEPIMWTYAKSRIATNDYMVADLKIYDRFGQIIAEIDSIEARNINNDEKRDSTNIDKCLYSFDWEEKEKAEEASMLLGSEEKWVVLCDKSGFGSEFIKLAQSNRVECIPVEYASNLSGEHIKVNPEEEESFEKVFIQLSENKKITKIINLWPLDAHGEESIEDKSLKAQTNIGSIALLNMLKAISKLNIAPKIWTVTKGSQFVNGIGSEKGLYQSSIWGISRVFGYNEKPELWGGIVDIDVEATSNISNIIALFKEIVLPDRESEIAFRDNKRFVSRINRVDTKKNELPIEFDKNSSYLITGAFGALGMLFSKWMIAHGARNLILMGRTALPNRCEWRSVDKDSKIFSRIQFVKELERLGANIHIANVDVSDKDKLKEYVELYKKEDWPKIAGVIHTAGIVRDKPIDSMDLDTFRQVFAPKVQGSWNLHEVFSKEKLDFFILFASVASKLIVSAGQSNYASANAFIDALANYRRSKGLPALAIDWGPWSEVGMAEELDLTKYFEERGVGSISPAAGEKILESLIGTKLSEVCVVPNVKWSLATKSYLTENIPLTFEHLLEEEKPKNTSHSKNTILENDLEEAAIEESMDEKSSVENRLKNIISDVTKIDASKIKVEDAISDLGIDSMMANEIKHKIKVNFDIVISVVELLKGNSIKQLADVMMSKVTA

Compound | in vitro product assay by LC-MS [1] | in vitro product assay by LC-MS; 14C acyl loading by SDS-PAGE autoradiography [2]
NC(=O)C1=CN([C@@H]2O[C@H](COP(=O)(O)OP(=O)(O)OC[C@H]3O[C@@H](n4cnc5c(N)ncnc54)[C@H](OP(=O)(O)O)[C@@H]3O)[C@@H](O)[C@H]2O)C=CC1 [NADPH] | Addition of NADPH to this reaction enabled function of the KR domain | –
CC(C)(COP(=O)(O)OP(=O)(O)OC[C@H]1O[C@@H](n2cnc3c(N)ncnc32)[C@H](O)[C@@H]1OP(=O)(O)O)[C@@H](O)C(=O)NCCC(=O)NCCSC(=O)CC(=O)O [malonyl-CoA] | – | in vitro reconstitution of the activity of PKS with malonyl-CoA showed a dominant product
